System: glycation cross-linking between bovine albumin and glucose
Test: Anti-glycation activity: fluorescence of bovine albumin-glucose adduct (AGE) after incubation
Type: biochemical
Details: 10 mM, 8 days 37° C.
Experimental: The effect of the extract of Diospyros kaki was studied in vitro on a model based on the measurement of the formation of the derivatives of the glycation reaction between lysine and glucose 6-phosphate. Certain of these derivatives (AGE) are fluorescent. The reaction was measured after […] of incubation.
A reference molecule was tested in parallel: aminoguanidine.
The test system is the reaction mixture containing bovine albumin ([…]) and glucose (500 mM) in a phosphate buffer (0.2 M, pH=7.4.).
The products were mixed with the test system in sterile tubes; the tubes were covered with aluminum foil (the reaction must take place shielded from light).
For the experimental conditions in which certain reagents or products are not present, the volume of the QSP tube should be completed with MilliQ water.
After having sealed the openings of the tubes with parafilm (the reaction must take place without oxygen), the different reaction media were placed in a dry oven at 37° C. for 8 days.
After 8 days of incubation, 100 μl was collected from each tube and transferred to a 96-well black plate.
The fluorescence was then read using FLUOstar (BMG) (excitation at 355 nm, emission at 460 nm). The results are expressed in arbitrary fluorescence units.
The relative fluorescence for the “product+bovine albumin” (=interference) is to be subtracted from the “product+bovine albumin+glucose” data.
After 8 days of incubation of bovine albumin with an overcharge of glucose, the formation of glycation cross-linking was seen. It was evaluated by taking advantage of the fluorescence properties of the bovine albumin-glucose adduct.

N=C(N)NN [Aminoguanidine, aminoguanidine]
% inhibition of the glycation (BSA + glucose): 100%
Intensity of fluorescence (BSA + glucose, ex 355 nm / em 460 nm): 13,011.5 arbitrary units
Intensity of real fluorescence (interference subtracted): 0 arbitrary units

Reference: patent US20050186172A1, “Cosmetic composition capable of fighting against skin aging” (Laboratoires Clarins, a corporation of France, priority 2002, published 2005)
